Measured values as given in article PMC4009756, “In Vitro High Throughput Screening, What Next? Lessons from the Screening for Aurora Kinase Inhibitors” (Biology, 2014).

Columns and labels:
Assay type in all cases: biochemical
[1] = target: T1, GCK "Germinal central kinase" (Homo sapiens, UniProt Q12851); test: in vitro kinase profiling (MRC Dundee), […], duplicate
T1 construct: gene MAP4K2; recombinant kinase (BC047865)
T1 sequence (Q12851 1-820): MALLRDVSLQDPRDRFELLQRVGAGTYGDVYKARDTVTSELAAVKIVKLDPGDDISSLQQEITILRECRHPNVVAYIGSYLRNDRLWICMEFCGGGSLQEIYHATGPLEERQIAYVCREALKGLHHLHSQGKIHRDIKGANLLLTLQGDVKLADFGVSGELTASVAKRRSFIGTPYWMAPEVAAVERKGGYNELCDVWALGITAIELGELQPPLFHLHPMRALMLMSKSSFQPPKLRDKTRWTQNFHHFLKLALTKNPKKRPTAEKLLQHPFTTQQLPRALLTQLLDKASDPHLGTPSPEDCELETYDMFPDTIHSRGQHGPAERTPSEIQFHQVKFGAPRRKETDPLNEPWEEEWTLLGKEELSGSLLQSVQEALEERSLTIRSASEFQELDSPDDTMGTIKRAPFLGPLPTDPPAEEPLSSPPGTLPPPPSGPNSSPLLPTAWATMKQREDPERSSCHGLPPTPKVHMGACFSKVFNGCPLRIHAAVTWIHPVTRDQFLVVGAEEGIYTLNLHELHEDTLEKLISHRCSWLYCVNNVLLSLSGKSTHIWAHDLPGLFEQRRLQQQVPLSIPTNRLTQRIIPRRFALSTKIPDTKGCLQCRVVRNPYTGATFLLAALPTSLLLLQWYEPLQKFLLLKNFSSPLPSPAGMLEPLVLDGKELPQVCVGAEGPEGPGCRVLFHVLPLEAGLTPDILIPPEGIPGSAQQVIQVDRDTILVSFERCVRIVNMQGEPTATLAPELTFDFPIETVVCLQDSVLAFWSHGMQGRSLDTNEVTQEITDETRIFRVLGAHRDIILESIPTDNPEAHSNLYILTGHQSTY

[2] = target: T2, NUAK1-ARK5 "SnF1-like Kinase" (Homo sapiens, UniProt O60285); test: as above
T2 construct: recombinant kinase (NM_014840)
T2 sequence (O60285 1-661): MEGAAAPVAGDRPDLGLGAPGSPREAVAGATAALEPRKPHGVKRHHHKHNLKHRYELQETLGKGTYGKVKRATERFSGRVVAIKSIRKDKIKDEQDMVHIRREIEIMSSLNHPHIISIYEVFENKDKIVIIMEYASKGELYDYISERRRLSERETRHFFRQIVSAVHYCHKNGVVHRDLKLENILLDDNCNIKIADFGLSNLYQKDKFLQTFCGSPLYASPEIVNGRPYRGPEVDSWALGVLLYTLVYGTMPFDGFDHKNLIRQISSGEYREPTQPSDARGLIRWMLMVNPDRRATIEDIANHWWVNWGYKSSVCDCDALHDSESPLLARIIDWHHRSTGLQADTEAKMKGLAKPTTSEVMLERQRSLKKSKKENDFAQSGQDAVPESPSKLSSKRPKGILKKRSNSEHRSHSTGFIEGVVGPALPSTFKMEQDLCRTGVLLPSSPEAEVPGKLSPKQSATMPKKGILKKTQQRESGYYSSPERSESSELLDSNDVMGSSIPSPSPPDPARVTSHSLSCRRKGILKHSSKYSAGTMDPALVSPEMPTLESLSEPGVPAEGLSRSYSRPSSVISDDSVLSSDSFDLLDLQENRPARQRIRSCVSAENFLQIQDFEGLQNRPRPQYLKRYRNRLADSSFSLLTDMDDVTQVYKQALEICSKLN

[3] = target: T3, TrkA "Tropomyosin Related kinase A" (Homo sapiens, UniProt P04629); test: as above
T3 construct: gene NTRK1; recombinant kinase (NM_001007792.1)

[4] = target: T4, Tak1 "Transforming growth factor beta activated kinase" (Homo sapiens, UniProt O43318); test: as above
T4 construct: gene MAP3K7; recombinant kinase (NM_003188)
T4 sequence (O43318 1-606): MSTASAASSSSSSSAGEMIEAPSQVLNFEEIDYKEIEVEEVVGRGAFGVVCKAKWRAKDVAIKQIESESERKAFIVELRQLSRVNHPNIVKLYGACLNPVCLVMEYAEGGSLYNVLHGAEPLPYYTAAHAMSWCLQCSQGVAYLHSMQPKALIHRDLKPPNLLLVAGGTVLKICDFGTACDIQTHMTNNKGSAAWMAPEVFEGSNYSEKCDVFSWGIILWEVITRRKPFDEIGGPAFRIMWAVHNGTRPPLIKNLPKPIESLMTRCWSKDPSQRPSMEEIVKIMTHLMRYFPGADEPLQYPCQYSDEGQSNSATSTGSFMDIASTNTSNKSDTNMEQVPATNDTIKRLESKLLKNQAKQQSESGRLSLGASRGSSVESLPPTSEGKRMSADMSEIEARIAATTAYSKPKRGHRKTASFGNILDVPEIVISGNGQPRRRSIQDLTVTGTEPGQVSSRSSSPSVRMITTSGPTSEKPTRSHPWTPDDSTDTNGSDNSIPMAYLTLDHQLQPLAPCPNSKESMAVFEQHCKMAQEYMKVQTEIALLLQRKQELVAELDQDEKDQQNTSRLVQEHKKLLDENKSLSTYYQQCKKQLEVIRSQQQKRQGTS

[5] = target: T5, aurora kinase A (Homo sapiens, UniProt O14965); test: in vitro histone H3 phosphorylation by recombinant kinase domain; settings: read-out: % inhibition at 1.5 μM
T5 construct: gene AURKA; recombinant kinase domain
T5 sequence (O14965 133-383 limits assumed): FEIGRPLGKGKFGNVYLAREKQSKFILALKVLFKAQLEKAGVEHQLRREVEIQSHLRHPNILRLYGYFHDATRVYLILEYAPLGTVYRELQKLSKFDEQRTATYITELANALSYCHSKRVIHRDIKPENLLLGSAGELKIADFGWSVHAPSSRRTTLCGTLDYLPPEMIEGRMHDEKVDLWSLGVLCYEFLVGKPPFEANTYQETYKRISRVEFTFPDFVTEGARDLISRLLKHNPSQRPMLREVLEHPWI

T3 sequence (P04629 33-796): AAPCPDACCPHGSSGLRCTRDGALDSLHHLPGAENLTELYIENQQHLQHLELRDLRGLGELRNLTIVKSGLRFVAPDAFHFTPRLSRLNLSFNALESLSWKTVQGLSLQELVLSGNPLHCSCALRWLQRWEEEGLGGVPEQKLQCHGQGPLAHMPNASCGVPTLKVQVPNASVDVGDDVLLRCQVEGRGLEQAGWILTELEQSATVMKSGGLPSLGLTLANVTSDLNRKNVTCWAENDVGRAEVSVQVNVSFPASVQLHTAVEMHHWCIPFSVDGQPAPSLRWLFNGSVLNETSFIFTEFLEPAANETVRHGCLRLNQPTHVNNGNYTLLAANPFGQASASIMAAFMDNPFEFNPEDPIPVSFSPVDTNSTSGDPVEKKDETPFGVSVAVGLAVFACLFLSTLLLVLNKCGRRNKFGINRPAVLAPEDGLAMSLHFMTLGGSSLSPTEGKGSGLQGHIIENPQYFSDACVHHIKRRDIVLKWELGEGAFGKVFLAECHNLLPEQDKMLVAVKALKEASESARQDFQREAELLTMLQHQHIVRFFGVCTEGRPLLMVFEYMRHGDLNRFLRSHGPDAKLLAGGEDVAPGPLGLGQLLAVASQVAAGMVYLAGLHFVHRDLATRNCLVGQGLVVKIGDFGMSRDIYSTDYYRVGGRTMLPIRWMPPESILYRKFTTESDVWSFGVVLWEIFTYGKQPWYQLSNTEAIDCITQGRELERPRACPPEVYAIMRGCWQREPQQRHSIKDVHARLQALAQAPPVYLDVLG

Row | Structure (SMILES) | remaining activity at 1 µM [1] [%] | remaining activity at 1 µM [2] [%] | remaining activity at 1 µM [3] [%] | remaining activity at 1 µM [4] [%] | inhibition at 1.5 µM [5] [%]
1 | Cc1cncc2c1[nH]c1ccc3cc(OCCN(C)C)ccc3c12 [C2] | 32 ± 1 | 53 ± 2 | 36 ± 2 | 55 ± 3 | 
2 | O=c1cc(-c2ccc(O)cc2)oc2cc(O)cc(O)c12 [apigenin] |  |  |  |  | 33
3 | O=c1cc(-c2ccc(O)c(O)c2)oc2cc(O)cc(O)c12 [luteonin] |  |  |  |  | 50
